Measurements from ChEMBL document CHEMBL5321234, “Discovery of Thieno[3,2-d]pyrimidine derivatives as potent and selective inhibitors of ataxia telangiectasia mutated and Rad3 related (ATR) kinase” (Eur J Med Chem, 2023).

Legend:
[1] = MRT (0 to infinity) in ICR mouse at 1 mg/kg, iv measured upto 24 hrs by LC-MS/MS analysis; type: ADME, organism-based; details: in vivo, iv, 1 mg/kg, 24 h
[2] = AUC (0 to infinity) in ICR mouse at 10 mg/kg, po measured upto 24 hrs by LC-MS/MS analysis; type: ADME, organism-based; set-up: dose 10 mg/kg, time < 24 hrs, route po; details: in vivo
[3] = Acute toxicity in ICR mouse assessed as mortality at 2000 mg/kg, po measured after 14 days; type: organism-based; details: in vivo, 336 h, time 14 day
[4] = Toxicity in po dosed ICR mouse assessed as mortality measured after 14 days; type: organism-based; details: in vivo, time 14 day
[5] = Initial plasma concentration in ICR mouse at 1 mg/kg, iv measured upto 24 hrs by LC-MS/MS analysis; type: ADME, organism-based
LoVo [6] = assay: Antitumor activity against human LoVo cells xenografted in BALB/c mouse assessed as tumor growth inhibition at 50 mg/kg, po qd administered for 21 consecutive days relative to control; type: functional; details: 504 h, time 21 day, read-out: TGI
[7] = Half life in ICR mouse at 10 mg/kg, po measured upto 24 hrs by LC-MS/MS analysis; type: ADME, organism-based; details: in vivo
HT-29 [8] = assay: Antiproliferative activity against human HT-29 cells incubated for 72 hrs by CCK-8 assay; type: functional, cell-based; details: HT-29, 72 h
[9] = MRT (0 to infinity) in ICR mouse at 10 mg/kg, po measured upto 24 hrs by LC-MS/MS analysis; type: ADME, organism-based; details: in vivo
LoVo [10] = assay: Antiproliferative activity against human LoVo cells incubated for 72 hrs by CCK-8 assay; type: functional, cell-based
[11] = Cmax in ICR mouse at 10 mg/kg, po measured upto 24 hrs by LC-MS/MS analysis; type: ADME, organism-based; set-up: time < 24 hrs, dose 10 mg/kg, route po; details: in vivo
LoVo [12] = assay: Antitumor activity against human LoVo cells xenografted in BALB/c mouse assessed as tumor growth inhibition at 50 mg/kg, po bid administered for 21 consecutive days relative to control; type: functional; details: 504 h, time 21 day, read-out: TGI
[13] = AUC (0 to infinity) in ICR mouse at 1 mg/kg, iv measured upto 24 hrs by LC-MS/MS analysis; type: ADME, organism-based; set-up: dose 1 mg/kg, time < 24 hrs, route iv; details: in vivo
[14] = Oral bioavailability in ICR mouse at 10 mg/kg measured upto 24 hrs by LC-MS/MS analysis; type: ADME, organism-based; details: in vivo
[15] = Toxicity in ICR male mouse assessed as mortality at 2000 mg/kg, po measured after 14 days; type: organism-based; details: in vivo, 336 h, time 14 day
[16] = molecular target: Serine/threonine-protein kinase mTOR (Homo sapiens, UniProt P42345); assay: Inhibition of mTOR (unknown origin)
[17] = Cmax in ICR mouse at 1 mg/kg, iv measured upto 24 hrs by LC-MS/MS analysis; type: ADME, organism-based; set-up: time < 24 hrs, dose 1 mg/kg, route iv; details: in vivo
[18] = MRT (0 to t) in ICR mouse at 1 mg/kg, iv measured upto 24 hrs by LC-MS/MS analysis; type: ADME, organism-based; details: in vivo
HT-29 [19] = assay: Antiproliferative activity against human HT-29 cells in presence of AZD1390 incubated for 72 hrs by CCK-8 assay; type: functional, cell-based; details: HT-29, 72 h
[20] = Toxicity in ICR mouse assessed as body weight change at 2000 mg/kg, po measured after 14 days; type: organism-based; details: in vivo, 336 h, time 14 day
[21] = Clearance in ICR mouse at 1 mg/kg, iv measured upto 24 hrs by LC-MS/MS analysis; type: ADME, organism-based; details: in vivo, iv, 1 mg/kg, 24 h
[22] = Tmax in ICR mouse at 10 mg/kg, po measured upto 24 hrs by LC-MS/MS analysis; type: ADME, organism-based; details: in vivo
Cytochrome P450 1A2 = molecular target: T1, Cytochrome P450 1A2 (Homo sapiens, UniProt P05177); assay: Inhibition of CYP1A2 (unknown origin); type: ADME
T1 sequence (P05177 whole entry): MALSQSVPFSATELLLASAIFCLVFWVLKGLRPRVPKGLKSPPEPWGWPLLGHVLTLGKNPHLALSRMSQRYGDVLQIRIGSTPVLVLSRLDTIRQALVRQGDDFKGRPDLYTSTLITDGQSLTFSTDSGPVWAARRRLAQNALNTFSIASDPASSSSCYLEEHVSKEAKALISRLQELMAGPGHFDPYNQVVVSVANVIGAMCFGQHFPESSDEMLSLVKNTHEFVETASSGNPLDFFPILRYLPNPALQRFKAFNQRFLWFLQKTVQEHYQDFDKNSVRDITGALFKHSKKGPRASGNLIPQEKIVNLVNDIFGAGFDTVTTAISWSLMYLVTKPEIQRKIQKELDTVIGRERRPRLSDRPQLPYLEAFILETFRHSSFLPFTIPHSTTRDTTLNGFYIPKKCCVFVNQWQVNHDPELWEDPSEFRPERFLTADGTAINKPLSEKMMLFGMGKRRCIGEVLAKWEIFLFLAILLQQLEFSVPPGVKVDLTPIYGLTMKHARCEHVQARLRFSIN

[23] = molecular target: Serine/threonine-protein kinase ATR (Homo sapiens, UniProt Q13535); assay: Inhibition of ATR (unknown origin)
[24] = Half life in ICR mouse at 1 mg/kg, iv measured upto 24 hrs by LC-MS/MS analysis; type: ADME, organism-based; details: in vivo
[25] = MRT (0 to t) in ICR mouse at 10 mg/kg, po measured upto 24 hrs by LC-MS/MS analysis; type: ADME, organism-based; details: in vivo
[26] = AUC (0 to t) in ICR mouse at 10 mg/kg, po measured upto 24 hrs by LC-MS/MS analysis; type: ADME, organism-based; set-up: dose 10 mg/kg, time < 24 hrs, route po; details: in vivo
Cytochrome P450 3A4 = Cytochrome P450 3A4 (Homo sapiens, UniProt P08684); assay: Inhibition of CYP3A4 (unknown origin); type: ADME
[27] = Volume of distribution at steady state in ICR mouse at 1 mg/kg, iv measured upto 24 hrs by LC-MS/MS analysis; type: ADME, organism-based; details: in vivo, iv, 1 mg/kg, 24 h
[28] = Tmax in ICR mouse at 1 mg/kg, iv measured upto 24 hrs by LC-MS/MS analysis; type: ADME, organism-based; details: in vivo
[29] = Inhibition of DNA-PK (unknown origin); set-up: species or system Homo sapiens
[30] = AUC (0 to t) in ICR mouse at 1 mg/kg, iv measured upto 24 hrs by LC-MS/MS analysis; type: ADME, organism-based; set-up: dose 1 mg/kg, time < 24 hrs, route iv; details: in vivo

Chain of Serine/threonine-protein kinase ATR (Q13535 whole entry): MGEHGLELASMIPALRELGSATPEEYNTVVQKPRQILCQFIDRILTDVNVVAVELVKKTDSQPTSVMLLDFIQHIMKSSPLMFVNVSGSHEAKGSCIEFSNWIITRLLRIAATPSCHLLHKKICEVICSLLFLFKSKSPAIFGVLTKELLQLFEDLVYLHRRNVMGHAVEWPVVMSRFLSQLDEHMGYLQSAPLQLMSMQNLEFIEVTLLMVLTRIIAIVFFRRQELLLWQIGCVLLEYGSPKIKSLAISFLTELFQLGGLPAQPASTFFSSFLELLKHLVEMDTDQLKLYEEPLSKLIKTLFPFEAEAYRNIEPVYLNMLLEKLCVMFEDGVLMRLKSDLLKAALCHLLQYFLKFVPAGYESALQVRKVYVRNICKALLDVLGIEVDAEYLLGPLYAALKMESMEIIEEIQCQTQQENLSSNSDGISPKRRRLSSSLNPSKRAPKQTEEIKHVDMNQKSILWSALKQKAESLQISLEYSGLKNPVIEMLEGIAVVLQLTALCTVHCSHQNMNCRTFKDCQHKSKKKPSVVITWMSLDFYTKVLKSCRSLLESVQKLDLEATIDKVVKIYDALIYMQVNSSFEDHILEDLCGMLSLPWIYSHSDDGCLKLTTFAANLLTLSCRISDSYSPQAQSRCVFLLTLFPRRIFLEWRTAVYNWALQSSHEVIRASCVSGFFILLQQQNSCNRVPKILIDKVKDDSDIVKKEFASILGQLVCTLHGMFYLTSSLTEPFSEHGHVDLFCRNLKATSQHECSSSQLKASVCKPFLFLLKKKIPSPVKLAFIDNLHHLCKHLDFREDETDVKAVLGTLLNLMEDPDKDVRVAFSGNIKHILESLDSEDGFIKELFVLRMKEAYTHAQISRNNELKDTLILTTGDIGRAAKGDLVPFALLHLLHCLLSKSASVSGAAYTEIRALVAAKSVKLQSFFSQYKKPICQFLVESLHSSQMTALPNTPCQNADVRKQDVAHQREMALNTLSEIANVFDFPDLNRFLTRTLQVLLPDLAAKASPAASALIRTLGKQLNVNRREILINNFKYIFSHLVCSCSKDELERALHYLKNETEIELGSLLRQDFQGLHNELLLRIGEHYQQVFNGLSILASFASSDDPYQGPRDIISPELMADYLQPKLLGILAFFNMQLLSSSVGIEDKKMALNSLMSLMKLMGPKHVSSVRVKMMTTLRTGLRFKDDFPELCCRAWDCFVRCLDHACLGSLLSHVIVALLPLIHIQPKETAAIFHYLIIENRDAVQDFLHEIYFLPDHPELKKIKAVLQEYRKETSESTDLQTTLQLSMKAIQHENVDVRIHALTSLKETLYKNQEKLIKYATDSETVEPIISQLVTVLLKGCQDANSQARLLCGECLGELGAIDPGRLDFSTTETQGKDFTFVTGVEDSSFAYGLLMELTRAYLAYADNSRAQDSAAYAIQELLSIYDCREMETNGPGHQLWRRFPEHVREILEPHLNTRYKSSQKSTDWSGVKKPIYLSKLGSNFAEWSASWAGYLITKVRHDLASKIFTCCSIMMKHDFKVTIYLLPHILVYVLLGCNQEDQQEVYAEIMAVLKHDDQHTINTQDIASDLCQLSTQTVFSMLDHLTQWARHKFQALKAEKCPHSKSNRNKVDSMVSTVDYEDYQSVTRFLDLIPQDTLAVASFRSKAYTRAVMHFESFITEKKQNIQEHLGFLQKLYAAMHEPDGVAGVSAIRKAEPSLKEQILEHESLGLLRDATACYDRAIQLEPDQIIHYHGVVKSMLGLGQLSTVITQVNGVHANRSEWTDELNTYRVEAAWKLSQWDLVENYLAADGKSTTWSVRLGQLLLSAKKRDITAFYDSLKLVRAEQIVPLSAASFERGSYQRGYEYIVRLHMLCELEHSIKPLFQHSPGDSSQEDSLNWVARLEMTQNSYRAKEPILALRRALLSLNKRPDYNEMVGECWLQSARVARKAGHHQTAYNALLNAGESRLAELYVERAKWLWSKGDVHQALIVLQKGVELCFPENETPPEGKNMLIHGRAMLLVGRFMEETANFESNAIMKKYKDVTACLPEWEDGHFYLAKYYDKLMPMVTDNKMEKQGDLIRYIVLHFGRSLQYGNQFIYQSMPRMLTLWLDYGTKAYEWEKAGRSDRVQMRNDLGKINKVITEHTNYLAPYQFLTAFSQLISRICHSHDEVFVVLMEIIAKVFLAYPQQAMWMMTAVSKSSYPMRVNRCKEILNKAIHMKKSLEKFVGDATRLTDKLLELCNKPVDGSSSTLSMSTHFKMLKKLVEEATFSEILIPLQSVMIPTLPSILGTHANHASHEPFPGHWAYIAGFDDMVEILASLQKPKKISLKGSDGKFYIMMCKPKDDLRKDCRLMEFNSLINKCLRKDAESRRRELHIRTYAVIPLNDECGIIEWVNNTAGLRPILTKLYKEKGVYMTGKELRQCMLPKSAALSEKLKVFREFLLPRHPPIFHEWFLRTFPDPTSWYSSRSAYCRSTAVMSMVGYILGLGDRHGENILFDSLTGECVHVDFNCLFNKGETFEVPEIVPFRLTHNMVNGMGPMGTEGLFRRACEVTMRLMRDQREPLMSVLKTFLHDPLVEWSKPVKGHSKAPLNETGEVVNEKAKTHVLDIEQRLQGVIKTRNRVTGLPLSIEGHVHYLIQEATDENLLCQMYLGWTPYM
Chain of Cytochrome P450 3A4 (P08684 whole entry): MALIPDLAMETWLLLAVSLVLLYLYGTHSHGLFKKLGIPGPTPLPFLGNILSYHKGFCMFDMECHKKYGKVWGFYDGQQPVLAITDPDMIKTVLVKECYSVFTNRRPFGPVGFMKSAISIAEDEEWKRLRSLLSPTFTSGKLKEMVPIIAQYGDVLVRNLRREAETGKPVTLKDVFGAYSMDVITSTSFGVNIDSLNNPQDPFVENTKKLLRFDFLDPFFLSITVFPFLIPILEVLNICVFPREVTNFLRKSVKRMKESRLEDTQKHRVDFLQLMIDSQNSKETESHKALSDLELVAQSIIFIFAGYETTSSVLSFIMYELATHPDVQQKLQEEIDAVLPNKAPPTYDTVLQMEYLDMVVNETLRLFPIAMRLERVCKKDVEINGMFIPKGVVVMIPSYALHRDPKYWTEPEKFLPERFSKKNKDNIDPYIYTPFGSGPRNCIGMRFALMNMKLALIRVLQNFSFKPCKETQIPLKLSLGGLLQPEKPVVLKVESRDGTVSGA

CNc1nc2ccccc2n1-c1nc(N2CCOC[C@H]2C)c2scc(S(C)(=O)=O)c2n1
MRT [1]: 58.2 min | AUC(0-inf) [2]: 4420 ng·h/mL | Activity [3]: Toxic | LD50 at 336 h [4]: 2000 mg/kg | C0 at 24 h [5]: 1310 ng/mL | inhibition in vivo at 50 mg/kg (LoVo [6]): 32% | half-life [7]: 304 min | IC50 (HT-29 [8]): 161 nM | MRT inf [9]: 6.2 h | IC50 (LoVo [10]): 73 nM | Cmax [11]: 1270 ng/mL | inhibition in vivo at 50 mg/kg (LoVo [12]): 55% | AUC(0-inf) [13]: 962 ng·h/mL | bioavailability [14]: 46% | Activity [15]: Toxic | IC50 [16]: 58.8 nM | Cmax [17]: 1140 ng/mL | MRT last at 24 h [18]: 53.4 min | IC50 (HT-29 [19]): 3 nM | Activity [20]: Non-Toxic | CL [21]: 1041 mL/kg/h | Tmax [22]: 15 min | inhibition (INH) (Cytochrome P450 1A2): Not Active | IC50 [23]: 1.5 nM | half-life [24]: 93.6 min | MRT last at 24 h [25]: 5.3 h | AUC(0-t) at 24 h [26]: 4300 ng·h/mL | inhibition (INH) (Cytochrome P450 3A4): Not Active | Vdss [27]: 2371 mL/kg | Tmax [28]: 4.8 min | IC50 [29]: 25.3 nM | AUC(0-t) at 24 h [30]: 954 ng·h/mL
